Laboratory results: patent US10604552B2, “Generation of novel metabolite-responsive transcription regulator biosensors” (NORTHWESTERN UNIVERSITY, priority 2016, dated 2020)

System: TOP10 Escherichia coli cells
Assay type: cell-based
Conditions: 100 mM maltose; SP biosensor with No Sites or Go66 reporter
Description: All experiments were conducted in TOP10 Escherichia coli cells (F-mcrA Δ(mrr-hsdRMS-mcrBC) φ80lacZAM15 ΔlacX74 nupG recAl araD139 Δ(ara-leu)7697 galE15 galK16 rpsL(Str^R) endA1 λ^−) (Life Technologies). Cells were maintained in Lysogeny Broth (LB) Lennox formulation (10 g/L of tryptone, 5 g/L of yeast extract, 5 g/L of NaCl) supplemented with appropriate antibiotics (Ampicillin 100 μg/mL or Kanamycin 50 μg/mL). All experimental analysis was conducted in M9 minimal media (1×M9 salts, 0.2% Casamino Acids, 2 mM MgSO^4, 0.1 mM CaCl^2, 1 mM Thiamine HCl) containing glycerol (0.4%) as the primary carbon source. 1% arabinose and variable amounts of maltose monohydrate and isopropyl β-D-1-thiogalactopyranoside (IPTG) were added as indicated. M9 medium containing both Ampicillin and Kanamycin was used to maintain the strains that contained both a reporter plasmid and a biosensor plasmid.
Cultures were inoculated from single colonies into 2 mL of M9 media and grown overnight to stationary phase. Overnight cultures were diluted 1:20 and grown into exponential phase (OD600˜0.5). […] Plates with lids were incubated and shaken in a continuous double orbital pattern at 548 cpm (2 mm) inside a BioTek Synergy H1 plate reader for 10 h with GFP, mCherry, and OD600 measurements taken every 15 min. […]

Compound: OC[C@H]1O[C@H](O[C@H]2[C@H](O)[C@@H](O)C(O)O[C@@H]2CO)[C@H](O)[C@@H](O)[C@@H]1O (mixture of isomers) [maltose]
- impact on cell growth: did not substantially impact cell growth
